Assay: Water solubility / water-dispersability, including FIG. 1 comparison
Type: physicochemical
Details: dispersed in water, bottle A vs bottle B

For `Cc1coc2c1C(=O)C(=O)c1c-2ccc2c1CCCC2(C)C` [known 90% Tan IIA, Tanshinone IIA], the “Water-dispersability (FIG. 1)” value was “insoluble in water”.

— patent US20210379543A1, “PROCESS FOR PRODUCING A NANO-TAN IIA MICROEMULSION SYSTEM” (Wakamono Corporation, priority 2021, published 2021)
